Reference: patent US8846719B2, “Isoxazolo-pyridine derivatives” (Roche Palo Alto LLC, priority 2007, dated 2014)

Molecular target: human GABA A receptor α5β3γ2 (Homo sapiens (Human), UniProt P18507+P31644)
Experiment: [3H]flumazenil competition binding assay, human GABA A α5β3γ2 receptors expressed in HEK293 cells
Settings: human receptor; displacement of [3H]flumazenil (0.5 nM); means of two determinations; read-out: hKi GABAAa5
Procedure: The affinity of compounds at GABA A receptor subtypes was measured by competition for [3H]flumazenil (85 Ci/mmol; Roche) binding to HEK293 cells expressing rat (stably transfected) or human (transiently transfected) receptors of composition α1β3γ2, α2β3γ2, α3β3γ2 and α5β3γ2.
Cell pellets were suspended in Krebs-tris buffer (4.8 mM KCl, 1.2 mM CaCl2, 1.2 mM MgCl2, 120 mM NaCl, 15 mM Tris; pH 7.5; binding assay buffer), homogenized by polytron for ca. 20 sec on ice and centrifuged for 60 min at 4° C. (50000 g; Sorvall, rotor: SM24=20000 rpm). The cell pellets were resuspended in Krebs-tris buffer and homogenized by polytron for ca. 15 sec on ice. Protein was measured (Bradford method, Bio-Rad) and aliquots of 1 mL were prepared and stored at −80° C.
Assays were incubated to equilibrium for 1 hour at 4° C. and harvested onto GF/C uni-filters (Packard) by filtration using a Packard harvester and washing with ice-cold wash buffer (50 mM Tris; pH 7.5). After drying, filter-retained radioactivity was detected by liquid scintillation counting. Ki values were calculated using Excel-Fit (Microsoft) and are the means of two determinations.

Row | SMILES | Ki
1 | CCNC(=O)c1ccc(OCc2c(-c3ccc(F)cc3)noc2C(F)(F)F)nc1 [Example 138, N-Ethyl-6-[3-(4-fluoro-phenyl)-5-trifluoromethyl-isoxazol-4-ylmethoxy]-nicotinamide] | 33.3 nM
2 | Cc1onc(-c2ccncc2)c1COc1ccc(C(=O)NC(C)C)cn1 [Example 149, N-Isopropyl-6-(5-methyl-3-pyridin-4-yl-isoxazol-4-ylmethoxy)-nicotinamide] | 4.5 nM
3 | Cc1onc(-c2ccncn2)c1COc1ccc(C(=O)NC(C)(C)CO)cn1 [Example 315, N-(2-Hydroxy-1,1-dimethyl-ethyl)-6-(5-methyl-3-pyrimidin-4-yl-isoxazol-4-ylmethoxy)-nicotinamide] | 8.1 nM
4 | Cc1onc(-c2cccc(F)c2)c1COc1ccc(C(=O)N2CCOCC2)cn1 [Example 94, {6-[3-(3-Fluoro-phenyl)-5-methyl-isoxazol-4-ylmethoxy]-pyridin-3-yl}-morpholin-4-yl-methanone] | 48.1 nM
5 | Cc1onc(-c2ccccc2)c1COc1ccc(C(=O)N(C)C(C)C)cn1 [Example 70, N-Isopropyl-N-methyl-6-(5-methyl-3-phenyl-isoxazol-4-ylmethoxy)-nicotinamide] | 53.1 nM
6 | Cc1onc(-c2ccccc2)c1COc1ccc(C(=O)NCc2ccccn2)cn1 [Example 22, 6-(5-Methyl-3-phenyl-isoxazol-4-ylmethoxy)-N-pyridin-2-ylmethyl-nicotinamide] | 4.6 nM
7 | Cc1nc(OCc2c(-c3ccccc3)noc2C)c(Br)cc1C(=O)NC1CCOCC1 [Example 67, 5-Bromo-2-methyl-6-(5-methyl-3-phenyl-isoxazol-4-ylmethoxy)-N-(tetrahydro-pyran-4-yl)-nicotinamide] | 47.3 nM
8 | Cc1onc(-c2cccc(Cl)c2)c1COc1ccc(C(=O)NCC2CC2)cn1 [Example 99, 6-[3-(3-Chloro-phenyl)-5-methyl-isoxazol-4-ylmethoxy]-N-cyclopropylmethyl-nicotinamide] | 8.1 nM
9 | COCCNC(=O)c1ccc(OCc2c(-c3ccccn3)noc2C)nc1 [Example 285, (2-Methoxy-ethyl)-6-(5-methyl-3-pyridin-2-yl-isoxazol-4-ylmethoxy)-nicotinamide] | 1.1 nM
10 | O=C(NCCO)c1ccc(OCc2c(-c3ccc(F)cc3)noc2C(F)(F)F)nc1 [Example 139, 6-[3-(4-Fluoro-phenyl)-5-trifluoromethyl-isoxazol-4-ylmethoxy]-N-(2-hydroxy-ethyl)-nicotinamide] | 16.5 nM
11 | Cc1onc(-c2ccccc2)c1COc1ccc(C(=O)NC2CC2)cn1 [Example 27, N-Cyclopropyl-6-(5-methyl-3-phenyl-isoxazol-4-ylmethoxy)-nicotinamide] | 2.7 nM
12 | Cc1onc(-c2ccccc2)c1COc1ccc(C(=O)NC2CCCN(CC(=O)NCC(F)(F)F)C2)cn1 (stereo not drawn) [Example 44, 6-(5-Methyl-3-phenyl-isoxazol-4-ylmethoxy)-N-{1-[(2,2,2-trifluoro-ethylcarbamoyl)-methyl]-piperidin-3-yl}-nicotinamide] | 10.1 nM
13 | Cc1onc(-c2ccccc2)c1COc1ccc(C(F)(F)F)cn1 [Example 4, 2-(5-Methyl-3-phenyl-isoxazol-4-ylmethoxy)-5-trifluoromethylpyridine] | 60.8 nM
14 | Cc1onc(-c2ccccc2)c1COc1ccc(C(=O)NCC(F)(F)F)cn1 [Example 12, 6-(5-Methyl-3-phenyl-isoxazol-4-ylmethoxy)-N-(2,2,2-trifluoro-ethyl)-nicotinamide] | 2.2 nM
15 | CC(C)(CO)NC(=O)c1ccc(OCc2conc2-c2ccc(Cl)cc2)nc1 [Example 349, 6-[3-(4-Chloro-phenyl)-isoxazol-4-ylmethoxy]-N-(2-hydroxy-1,1-dimethyl-ethyl)-nicotinamide] | 39.9 nM
16 | Cc1onc(-c2ccccc2)c1COc1ccc(C(=O)NC2CCCCC2O)cn1 (stereo not drawn) [Example 192, N-(2-Hydroxy-cyclohexyl)-6-(5-methyl-3-phenyl-isoxazol-4-ylmethoxy)-nicotinamide] | 2.9 nM
17 | Cc1cc(CNC(=O)c2ccc(OCc3c(-c4ccccc4)noc3C)nc2)c(=O)[nH]n1 [Example 23, N-(6-Methyl-3-oxo-2,3-dihydro-pyridazin-4-ylmethyl)-6-(5-methyl-3-phenyl-isoxazol-4-ylmethoxy)-nicotinamide] | 6.5 nM
18 | Cc1onc(-c2ccncc2)c1COc1ccc(C(=O)NC2CC2)cn1 [Example 148, N-Cyclopropyl-6-(5-methyl-3-pyridin-4-yl-isoxazol-4-ylmethoxy)-nicotinamide] | 7.1 nM
19 | Cc1onc(-c2cccnc2)c1COc1ccc(C(=O)NCC(F)(F)F)cn1 [Example 155, 6-(5-Methyl-3-pyridin-3-yl-isoxazol-4-ylmethoxy)-N-(2,2,2-trifluoro-ethyl)-nicotinamide] | 24 nM
20 | Cc1onc(-c2ccccc2)c1COc1ccc(C#N)cn1 [Example 5, 6-(5-Methyl-3-phenyl-isoxazol-4-ylmethoxy)-nicotinonitrile] | 13.1 nM
21 | Cc1onc(-c2ccccc2)c1COc1ccc(C(=O)NCCCCCO)cn1 [Example 221, N-(5-Hydroxy-pentyl)-6-(5-methyl-3-phenyl-isoxazol-4-ylmethoxy)-nicotinamide] | 4.1 nM
22 | O=C(N[C@H]1CCC[C@@H]1O)c1ccc(OCc2conc2-c2ccc(F)cc2)nc1 [Example 331, 6-[3-(4-Fluoro-phenyl)-isoxazol-4-ylmethoxy]-N-((1S,2S)-2-hydroxy-cyclopentyl)-nicotinamide] | 17.8 nM
23 | CCOC(=O)C(C)NC(=O)c1ccc(OCc2c(-c3ccccc3)noc2C)nc1 (stereo not drawn) [Example 25, 2-{[6-(5-Methyl-3-phenyl-isoxazol-4-ylmethoxy)-pyridine-3-carbonyl]-amino}-propionic acid ethyl ester] | 20.2 nM

The remaining lines, values ahead:

Row | Ki | SMILES
24 | 2.7 nM | Cc1onc(-c2ccccc2)c1COc1ccc(C(=O)N[C@H]2CCC[C@H]2O)cn1 (single isomer, unassigned) [Example 211, N-((1S,2R)-2-Hydroxy-cyclopentyl)-6-(5-methyl-3-phenyl-isoxazol-4-ylmethoxy)-nicotinamide or N-((1R,2S)-2-hydroxy-cyclopentyl)-6-(5-methyl-3-phenyl-isoxazol-4-ylmethoxy)-nicotinamide]
25 | 3.6 nM | Cc1onc(-c2ccccc2)c1COc1ccc(C(=O)NC2(C)CC2)cn1 [Example 239, N-(1-Methyl-cyclopropyl)-6-(5-methyl-3-phenyl-isoxazol-4-ylmethoxy)-nicotinamide]
26 | 10.6 nM | O=C(NC1CCOCC1)c1ccc(OCc2conc2-c2ccc(F)cc2)nc1 [Example 324, 6-[3-(4-Fluoro-phenyl)-isoxazol-4-ylmethoxy]-N-(tetrahydro-pyran-4-yl)-nicotinamide]
27 | 13.6 nM | CCNC(=O)c1ccc(OCc2conc2-c2ccccn2)nc1 [Example 364, N-Ethyl-6-(3-pyridin-2-yl-isoxazol-4-ylmethoxy)-nicotinamide]
28 | 5.2 nM | Cc1onc(-c2cccc(F)c2F)c1COc1ccc(C(=O)NC2CCOCC2)cn1 [Example 262, 6-[3-(2,3-Difluoro-phenyl)-5-methyl-isoxazol-4-ylmethoxy]-N-(tetrahydro-pyran-4-yl)-nicotinamide]
29 | 4.1 nM | Cc1onc(-c2ccc(F)cn2)c1COc1ccc(C(=O)N2CCOCC2)cn1 [Example 296, {6-[3-(5-Fluoro-pyridin-2-yl)-5-methyl-isoxazol-4-ylmethoxy]-pyridin-3-yl}-morpholin-4-yl-methanone]
30 | 3.3 nM | Cc1noc(-c2ccc(OCc3c(-c4ccccc4)noc3C)nc2)n1 [Example 245, 5-(3-Methyl-[1,2,4]oxadiazol-5-yl)-2-(5-methyl-3-phenyl-isoxazol-4-ylmethoxy)-pyridine]
31 | 0.4 nM | Cc1onc(-c2ccc(Cl)cc2F)c1COc1ccc(C(=O)NC(C)C)cn1 [Example 270, 6-[3-(4-Chloro-2-fluoro-phenyl)-5-methyl-isoxazol-4-ylmethoxy]-N-isopropyl-nicotinamide]
32 | 2 nM | Cc1onc(-c2ccccc2)c1COc1ccc(C(=O)N[C@H]2CCC[C@@H]2O)cn1 (single isomer, unassigned) [Example 212, N-((1S,2S)-2-Hydroxy-cyclopentyl)-6-(5-methyl-3-phenyl-isoxazol-4-ylmethoxy)-nicotinamide or N-((1R,2R)-2-hydroxy-cyclopentyl)-6-(5-methyl-3-phenyl-isoxazol-4-ylmethoxy)-nicotinamide]
33 | 7.8 nM | COCCNC(=O)c1ccc(OCc2c(-c3ccccc3)noc2C)nc1 [Example 184, N-(2-Methoxy-ethyl)-6-(5-methyl-3-phenyl-isoxazol-4-ylmethoxy)-nicotinamide]
34 | 20.2 nM | Cc1onc(-c2ccccc2)c1COc1ccc(C(=O)N2CCC[C@@H]2CO)cn1 [Example 225]
35 | 1.4 nM | Cc1onc(-c2ccccc2)c1COc1ccc(C(=O)NC2(C)COC2)cn1 [Example 232, N-(3-Methyl-oxetan-3-yl)-6-(5-methyl-3-phenyl-isoxazol-4-ylmethoxy)-nicotinamide]
36 | 1.2 nM | Cc1onc(-c2ccc(F)cn2)c1COc1ccc(C(=O)N2CCS(=O)(=O)CC2)cn1 [Example 293, (1,1-Dioxo-1,6-thiomorpholin-4-yl)-{6-[3-(5-fluoro-pyridin-2-yl)-5-methyl-isoxazol-4-ylmethoxy]-pyridin-3-yl}-methanone]
